Test results as given in the supplement of paper PMC11061612.

Assays:
Experiment in all cases: combination Emax (second highest fraction inhibited in the dose matrix, 72 h); higher = more inhibition; extreme values may be limits of the assay
[1] = test system: NTERA-2-cl-D1 (Other Solid Carcinomas)
Summary of the method: (§1)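 After 24 hours at 37°C and 5% CO2 in 1536-well plates, cells in DMEM/F12 or RPMI plus 10% FBS received two-drug dose matrices for 72 hours. Viability came from CellTiter-Glo 2.0 luminescence and was scaled as inhibition, anchored at 0 by vehicle wells and at 1 by blank wells. Combination Emax is taken as the second-highest inhibition in the matrix, and Bliss excess as the observed combination effect less EA + EB − EA·EB, with EA and EB the single-agent effects.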

[2] = test system: C2BBe1 (Colorectal Carcinoma)
Summary of the method: as §1

MG-63 (Osteosarcoma) = test system: MG-63 (Osteosarcoma)
Summary of the method: as §1

SK-MEL-24 (Melanoma) = test system: SK-MEL-24 (Melanoma)
Summary of the method: as §1

[3] = test system: COR-L105 (Lung Adenocarcinoma)
Summary of the method: as §1

[4] = test system: NCI-H1435 (Non-Small Cell Lung Carcinoma)
Summary of the method: as §1

[5] = test system: IGROV-1 (Ovarian Carcinoma)
Summary of the method: as §1

[6] = test system: JURL-MK1 (Chronic Myelogenous Leukemia)
Summary of the method: as §1

[7] = test system: SBC-5 (Small Cell Lung Carcinoma)
Summary of the method: as §1

[8] = test system: SW1463 (Colorectal Carcinoma)
Summary of the method: as §1

[9] = test system: HT-3 (Cervical Carcinoma)
Summary of the method: as §1

[10] = test system: OVKATE (Ovarian Carcinoma)
Summary of the method: as §1

[11] = test system: MRK-nu-1 (Breast Carcinoma)
Summary of the method: as §1

[12] = test system: CAL-85-1 (Breast Carcinoma)
Summary of the method: as §1

[13] = test system: SUP-HD1 (Hodgkin's Lymphoma)
Summary of the method: as §1

NCI-H2452 (Mesothelioma) = test system: NCI-H2452 (Mesothelioma)
Summary of the method: as §1

[14] = test system: RS4-11 (B-Lymphoblastic Leukemia)
Summary of the method: as §1

[15] = test system: NCI-H835 (Other Solid Carcinomas)
Summary of the method: as §1

[16] = test system: BC-1 (B-Cell Non-Hodgkin's Lymphoma)
Summary of the method: as §1

[17] = test system: SBC-3 (Small Cell Lung Carcinoma)
Summary of the method: as §1

Row | SMILES | combination Emax [1] | combination Emax [2] | combination Emax (MG-63 (Osteosarcoma)) | combination Emax (SK-MEL-24 (Melanoma)) | combination Emax [3] | combination Emax [4] | combination Emax [5] | combination Emax [6] | combination Emax [7] | combination Emax [8] | combination Emax [9] | combination Emax [10] | combination Emax [11] | combination Emax [12] | combination Emax [13] | combination Emax (NCI-H2452 (Mesothelioma)) | combination Emax [14] | combination Emax [15] | combination Emax [16] | combination Emax [17]
1 | COc1nnc2ccc(N3CCC(c4ccc(OCCN5CCN(C)C(=O)[C@H]5C)cc4)CC3)nn12 [AZD5153] + Cn1cnc2c(F)c(Nc3ccc(Br)cc3Cl)c(C(=O)NOCCO)cc21 [Selumetinib] (first compound max 1 µM, 7x7, partner max 10 µM) | 0.712 | 0.701 | 0.689 | 0.857 | 0.621 | 0.233 | 0.736 | 1 | 0.662 | 0.732 | 0.399 | 0.26 | 0.306 | 0.687 | 0.752 | 0.446 | 0.593 | 0.446 | 0.945 | 0.699
2 | Cn1cnc2c(F)c(Nc3ccc(Br)cc3Cl)c(C(=O)NOCCO)cc21 [Selumetinib] + CC(C)n1c(=O)n(C)c2cnc3cc(F)c(-c4ccc(OCCCN5CCCCC5)nc4)cc3c21 [AZD1390] (first compound max 10 µM, 7x7, partner max 0.3 µM) | 0.235 | 0.351 | 0.305 | 0.495 | 0.402 | 0.13 | 0.618 | 0.973 | 0.0866 | 0.702 | 0.105 | 0.179 | 0.35 | 0.44 | 0.224 | 0.262 | 0.0431 | 0.0782 | 0.328 | 0.152
3 | COc1cccc(OCCCN)c1-c1cc(Nc2cnc(C#N)cn2)n[nH]1 [Prexasertib] + C[C@@H]1COCCN1C2=NC(=NC(=C2)C3(CC3)[S@](=N)(=O)C)C4=C5C=CNC5=NC=C4 [AZD6738] (first compound max 1 µM, 7x7, partner max 10 µM) | 0.596 | 0.556 | 0.866 | 0.646 | 0.473 | 0.283 | 0.754 | 1 | 0.938 | 0.704 | 0.679 | 0.337 | 0.746 | 0.477 | 0.903 | 0.672 | 1 | 0.372 | 0.996 | 0.762
4 | COc1nnc2ccc(N3CCC(c4ccc(OCCN5CCN(C)C(=O)[C@H]5C)cc4)CC3)nn12 [AZD5153] + CCN(CCO)CCCOc1ccc2c(Nc3cc(CC(=O)Nc4cccc(F)c4)[nH]n3)ncnc2c1 [AZD2811] (first compound max 1 µM, 7x7, partner max 1 µM) | 0.68 | 0.558 | 0.694 | 0.528 | 0.426 | 0.339 | 0.618 | 0.898 | 0.718 | 0.563 | 0.332 | 0.263 | 0.561 | 0.657 | 0.704 | 0.433 | 0.977 | 0.384 | 0.943 | 0.781
5 | COc1nnc2ccc(N3CCC(c4ccc(OCCN5CCN(C)C(=O)[C@H]5C)cc4)CC3)nn12 [AZD5153] + C[C@@H]1COCCN1C2=NC(=NC(=C2)C3(CC3)[S@](=N)(=O)C)C4=C5C=CNC5=NC=C4 [AZD6738] (first compound max 1 µM, 7x7, partner max 10 µM) | 0.832 | 0.579 | 0.757 | 0.636 | 0.477 | 0.3 | 0.843 | 0.998 | 0.83 | 0.555 | 0.601 | 0.324 | 0.814 | 0.734 | 0.823 | 0.574 | 0.944 | 0.727 | 0.989 | 0.784
6 | NC1(C(=O)N[C@@H](CCO)c2ccc(Cl)cc2)CCN(c2ncnc3[nH]ccc23)CC1 [Capivasertib] + CCN(CCO)CCCOc1ccc2c(Nc3cc(CC(=O)Nc4cccc(F)c4)[nH]n3)ncnc2c1 [AZD2811] (first compound max 10 µM, 7x7, partner max 1 µM) | 0.481 | 0.301 | 0.855 | 0.626 | 0.377 | 0.248 | 0.76 | 0.596 | 0.383 | 0.319 | 0.104 | 0.309 | 0.742 | 0.203 | 0.657 | 0.403 | 0.96 | 0.535 | 0.872 | 0.622
7 | Cn1cnc2c(F)c(Nc3ccc(Br)cc3Cl)c(C(=O)NOCCO)cc21 [Selumetinib] + CCN(CCO)CCCOc1ccc2c(Nc3cc(CC(=O)Nc4cccc(F)c4)[nH]n3)ncnc2c1 [AZD2811] (first compound max 10 µM, 7x7, partner max 1 µM) | 0.382 | 0.484 | 0.32 | 0.558 | 0.387 | 0.106 | 0.665 | 0.994 | 0.366 | 0.678 | 0.367 | 0.176 | 0.548 | 0.483 | 0.453 | 0.249 | 0.937 | 0.177 | 0.655 | 0.482
8 | COc1nnc2ccc(N3CCC(c4ccc(OCCN5CCN(C)C(=O)[C@H]5C)cc4)CC3)nn12 [AZD5153] + C=CCn1c(=O)c2cnc(Nc3ccc(N4CCN(C)CC4)cc3)nc2n1-c1cccc(C(C)(C)O)n1 [AZD1775] (first compound max 1 µM, partner max 1 µM) | 0.672 | 0.547 | 0.671 | 0.604 | 0.474 | 0.24 | 0.838 | 0.998 | 0.846 | 0.478 | 0.553 | 0.344 | 0.309 | 0.598 | 0.783 | 0.605 | 0.979 | 0.582 | 0.979 | 0.767
9 | Cn1cnc2c(F)c(Nc3ccc(Br)cc3Cl)c(C(=O)NOCCO)cc21 [Selumetinib] + C[C@@H]1COCCN1C2=NC(=NC(=C2)C3(CC3)[S@](=N)(=O)C)C4=C5C=CNC5=NC=C4 [AZD6738] (first compound max 10 µM, 7x7, partner max 10 µM) | 0.351 | 0.569 | 0.547 | 0.56 | 0.483 | 0.114 | 0.818 | 1 | 0.814 | 0.643 | 0.54 | 0.199 | 0.413 | 0.559 | 0.668 | 0.363 | 0.953 | 0.19 | 0.923 | 0.656
10 | NC1(C(=O)N[C@@H](CCO)c2ccc(Cl)cc2)CCN(c2ncnc3[nH]ccc23)CC1 [Capivasertib] + Cn1cnc2c(F)c(Nc3ccc(Br)cc3Cl)c(C(=O)NOCCO)cc21 [Selumetinib] (first compound max 10 µM, 7x7, partner max 10 µM) | 0.321 | 0.569 | 0.793 | 0.856 | 0.492 | 0.244 | 0.882 | 1 | 0.627 | 0.65 | 0.281 | 0.385 | 0.4 | 0.411 | 0.496 | 0.344 | 0.468 | 0.41 | 0.829 | 0.346
11 | NC1(C(=O)N[C@@H](CCO)c2ccc(Cl)cc2)CCN(c2ncnc3[nH]ccc23)CC1 [Capivasertib] + CC(C)n1c(=O)n(C)c2cnc3cc(F)c(-c4ccc(OCCCN5CCCCC5)nc4)cc3c21 [AZD1390] (first compound max 10 µM, 7x7, partner max 0.3 µM) | 0.312 | 0.32 | 0.813 | 0.541 | 0.362 | 0.198 | 0.799 | 0.366 | 0.281 | 0.237 | 0.11 | 0.247 | 0.576 | 0.266 | 0.473 | 0.399 | 0.32 | 0.403 | 0.761 | 0.374
12 | COc1cccc(OCCCN)c1-c1cc(Nc2cnc(C#N)cn2)n[nH]1 [Prexasertib] + C=CCn1c(=O)c2cnc(Nc3ccc(N4CCN(C)CC4)cc3)nc2n1-c1cccc(C(C)(C)O)n1 [AZD1775] (first compound max 1 µM, partner max 1 µM) | 0.916 | 0.613 | 0.972 | 0.703 | 0.444 | 0.403 | 0.788 | 1 | 0.94 | 0.795 | 0.75 | 0.371 | 0.942 | 0.716 | 0.906 | 0.832 | 1 | 0.684 | 1 | 0.923
13 | COc1cccc(OCCCN)c1-c1cc(Nc2cnc(C#N)cn2)n[nH]1 [Prexasertib] + O=C(c1cc(Cc2n[nH]c(=O)c3ccccc23)ccc1F)N1CCN(C(=O)C2CC2)CC1 [Olaparib] (first compound max 1 µM, 7x7, partner max 10 µM) | 0.742 | 0.414 | 0.822 | 0.607 | 0.401 | 0.345 | 0.705 | 1 | 0.914 | 0.601 | 0.646 | 0.371 | 0.674 | 0.548 | 0.802 | 0.735 | 1 | 0.256 | 0.986 | 0.744
